Experimental data from ChEMBL document CHEMBL1151450, “Differential activities of newer antifungal agents against Candida albicans and Candida parapsilosis biofilms” (2008).
Converted amounts (≈) assume the structure as drawn. The source made the active and inactive calls. The calls are words filed in the database; no cut-off is given here. *1 amine or outer side, *2 acyl side, *3 side chain or, on linkers, in order; H or OH if unused. Where a SMILES comes first, the peptide text is derived from it. Bridges are numbered along the chain shown (N, C = ends). [ ]: non-standard residue; d: D form. The star is where a group is joined. pTerphenylCO(4''-OnC5H11) = CCCCCOc1ccc(-c2ccc(-c3ccc(C(=O)*)cc3)cc2)cc1; Orn(4R-OH,5R-OH) = O=C([C@H](C[C@@H](O)[C@@H](O)N[*:3])N[*:1])[*:2]; hTyr(3S-OH,4S-OH) = N[C@H](C(=O)O)[C@H](O)[C@@H](O)c1ccc(O)cc1; Pro(3S-OH,4S-Me) = C[C@H]1CN[C@H](C(=O)O)[C@H]1O; Hyp = O=C(O)[C@@H]1C[C@@H](O)CN1

How the values were obtained:
Candida albicans [1] = test: Antifungal activity against Candida albicans GDH2346 grown as planktonic cell assessed as minimum drug level required to decrease turbidity by 50% after 24 hrs by CLSI M27-A2 method; type: functional; conditions: GDH2346, 24 h
Candida albicans [2] = test: Antifungal activity against Candida albicans M61 grown as biofilm assessed as 50% reduction in metabolic activity of biofilm at 256 mg/liter after 24 hrs by XTT assay; type: functional, organism-based
Candida albicans [3] = test: Antifungal activity against Candida albicans M61 grown as planktonic cell assessed as minimum drug level required to decrease turbidity by 50% after 24 hrs by CLSI M27-A2 method; type: functional; conditions: M61, 24 h
Candida parapsilosis [4] = test: Antifungal activity against Candida parapsilosis PA/71 grown as biofilm assessed as 50% reduction in metabolic activity of biofilm at 256 mg/liter after 24 hrs by XTT assay; type: functional, organism-based
Candida parapsilosis [5] = test: Antifungal activity against Candida parapsilosis PA/71 grown as planktonic cell assessed as minimum drug level required to decrease turbidity by 50% after 24 hrs by CLSI M27-A2 method; type: functional; conditions: Lodderomyces parapsilosis, PA/71, 24 h
Candida parapsilosis [6] = test: Antifungal activity against Candida parapsilosis PA/71 grown as biofilm assessed as 50% reduction in metabolic activity of biofilm after 24 hrs by XTT assay; type: functional; conditions: Lodderomyces parapsilosis, PA/71, 24 h
Candida albicans [7] = test: Antifungal activity against Candida albicans GDH2346 grown as biofilm assessed as 50% reduction in metabolic activity of biofilm at 256 mg/liter after 24 hrs by XTT assay; type: functional, organism-based
Candida albicans [8] = test: Antifungal activity against Candida albicans M61 grown as biofilm assessed as maximum inhibition of biofilm metabolic activity at 0.5 mg/liter after 24 hrs by XTT assay relative to control; type: functional; conditions: M61, 24 h
Candida albicans [9] = test: Antifungal activity against Candida albicans M61 grown as biofilm assessed as 50% reduction in metabolic activity of biofilm after 24 hrs by XTT assay; type: functional; conditions: M61, 24 h
Candida albicans [10] = test: Antifungal activity against Candida albicans GDH2346 grown as biofilm assessed as 50% reduction in metabolic activity of biofilm after 24 hrs by XTT assay; type: functional; conditions: GDH2346, 24 h
Candida albicans [11] = test: Antifungal activity against Candida albicans GDH2346 grown as biofilm assessed as maximum inhibition of biofilm metabolic activity at 8 mg/liter after 24 hrs by XTT assay relative to control; type: functional; conditions: GDH2346, 24 h
Candida albicans [12] = test: Antifungal activity against Candida albicans M61 grown as biofilm assessed as maximum inhibition of biofilm metabolic activity at 2 mg/liter after 24 hrs by XTT assay relative to control; type: functional; conditions: M61, 24 h
Candida albicans [13] = test: Antifungal activity against Candida albicans GDH2346 grown as biofilm assessed as maximum inhibition of biofilm metabolic activity at 2 mg/liter after 24 hrs by XTT assay relative to control; type: functional; conditions: GDH2346, 24 h
Candida albicans [14] = test: Antifungal activity against Candida albicans M61 grown as biofilm at >2 mg/liter after 24 hrs by XTT assay; type: functional, organism-based
Candida parapsilosis [15] = test: Antifungal activity against Candida parapsilosis PA/71 grown as biofilm >2 mg/liter after 24 hrs by XTT assay; type: functional, organism-based
Candida albicans [16] = test: Antifungal activity against Candida albicans GDH2346 grown as biofilm assessed as 50% reduction in metabolic activity of biofilm at 0.03 mg/liter after 24 hrs by XTT assay; type: functional, organism-based
Candida albicans [17] = test: Antifungal activity against Candida albicans GDH2346 grown as biofilm >2 mg/liter after 24 hrs by XTT assay; type: functional, organism-based
Candida albicans [18] = test: Antifungal activity against Candida albicans M61 grown as biofilm assessed as 50% reduction in metabolic activity of biofilm at 0.06 mg/liter after 24 hrs by XTT assay; type: functional, organism-based
Candida albicans [19] = test: Antifungal activity against Candida albicans GDH2346 grown as biofilm assessed as 50% reduction in metabolic activity of biofilm at 64 mg/liter after 24 hrs by XTT assay; type: functional, organism-based
Candida albicans [20] = test: Antifungal activity against Candida albicans M61 grown as biofilm assessed as 50% reduction in metabolic activity of biofilm at 64 mg/liter after 24 hrs by XTT assay; type: functional, organism-based
Candida parapsilosis [21] = test: Antifungal activity against Candida parapsilosis PA/71 grown as biofilm assessed as 50% reduction in metabolic activity of biofilm at 64 mg/liter after 24 hrs by XTT assay; type: functional, organism-based

Compound: C[C@@H](c1ncncc1F)[C@](O)(Cn1cncn1)c1ccc(F)cc1F [VORICONAZOLE]
- MIC (Candida albicans [1]): 4 µg/mL (≈ 11.5 µM)
- Activity (Candida albicans [2]): inactive
- MIC (Candida albicans [3]): 0.01 µg/mL (≈ 0.0286 µM)
- Activity (Candida parapsilosis [4]): inactive
- MIC (Candida parapsilosis [5]): 0.03 µg/mL (≈ 0.0859 µM)
- MIC (Candida parapsilosis [6]): 256 µg/mL (≈ 733 µM)
- Activity (Candida albicans [7]): inactive

Compound: CCCCCOc1ccc(-c2ccc(-c3ccc(C(=O)N[C@H]4C[C@@H](O)[C@@H](O)NC(=O)[C@@H]5[C@@H](O)[C@@H](C)CN5C(=O)[C@H]([C@@H](C)O)NC(=O)[C@H]([C@H](O)[C@@H](O)c5ccc(O)cc5)NC(=O)[C@@H]5C[C@@H](O)CN5C(=O)[C@H]([C@@H](C)O)NC4=O)cc3)cc2)cc1 [ANIDULAFUNGIN] ({pTerphenylCO(4''-OnC5H11)}-[Orn(4R-OH,5R-OH)]T[Hyp][hTyr(3S-OH,4S-OH)]T[Pro(3S-OH,4S-Me)]; lactam 1-C)
- MIC (Candida albicans [1]): 0.003 µg/mL (≈ 0.00263 µM)
- inhibition at 0.5 µg/mL (Candida albicans [8]): 40%
- MIC (Candida albicans [3]): 0.003 µg/mL (≈ 0.00263 µM)
- MIC (Candida albicans [9]): 0.5 µg/mL (≈ 0.438 µM)
- MIC (Candida albicans [10]): 0.12 µg/mL (≈ 0.105 µM)
- MIC (Candida parapsilosis [5]): 0.125 µg/mL (≈ 0.11 µM)
- inhibition at 8 µg/mL (Candida albicans [11]): 40%
- MIC (Candida parapsilosis [6]): 2 µg/mL (≈ 1.75 µM)

Compound: CC[C@H](C)C[C@H](C)CCCCCCCCC(=O)N[C@H]1C[C@@H](O)[C@@H](NCCN)NC(=O)[C@@H]2[C@@H](O)CCN2C(=O)[C@H]([C@H](O)CCN)NC(=O)[C@H]([C@H](O)[C@@H](O)c2ccc(O)cc2)NC(=O)[C@@H]2C[C@@H](O)CN2C(=O)[C@H]([C@@H](C)O)NC1=O [CASPOFUNGIN]
- MIC (Candida albicans [1]): 0.03 µg/mL (≈ 0.0274 µM)
- MIC (Candida albicans [3]): 0.06 µg/mL (≈ 0.0549 µM)
- inhibition at 2 µg/mL (Candida albicans [12]): 30%
- inhibition at 2 µg/mL (Candida albicans [13]): 30%
- Activity (Candida albicans [14]): Active
- MIC (Candida parapsilosis [5]): 0.06 µg/mL (≈ 0.0549 µM)
- Activity (Candida parapsilosis [15]): Active
- Activity (Candida albicans [16]): Active
- MIC (Candida parapsilosis [6]): 1 µg/mL (≈ 0.915 µM)
- Activity (Candida albicans [17]): Active
- Activity (Candida albicans [18]): Active

Compound: CC[C@@H]([C@H](C)O)n1ncn(-c2ccc(N3CCN(c4ccc(OC[C@@H]5CO[C@@](Cn6cncn6)(c6ccc(F)cc6F)C5)cc4)CC3)cc2)c1=O [POSACONAZOLE]
- MIC (Candida albicans [1]): ≤ 0.001 µg/mL
- MIC (Candida albicans [3]): ≤ 0.001 µg/mL
- Activity (Candida albicans [19]): inactive
- Activity (Candida albicans [20]): inactive
- MIC (Candida parapsilosis [5]): 0.01 µg/mL (≈ 0.0143 µM)
- MIC (Candida parapsilosis [6]): > 256 µg/mL
- Activity (Candida parapsilosis [21]): inactive
